Results from patent US20010049373A1, “Materials and methods for killing nematodes and nematode eggs” (priority 2000, published 2001).

Test system: Caenorhabditis elegans
Experiment: C. elegans L1 larvae dose-response, 5 day visual viability score (Examples 2 and 7)
Assay type: in vivo
Set-up: key: Dead: only stiff L1s (no movement); Dead (L4): worms are dead, but at a later larval stage; majority of worms are L1 (based on size); majority of worms are L2 (based on size); majority of worms are L3 (based on size); majority of worms are L4 (based on size); AD: majority of worms are adult; #AD: 5 adult worms or less; B!: sterile (0-25 progeny); B: low broodsize (25-100 progeny); ˜B: moderate broodsize (100-250 progeny); <: reduced broodsize (250-500 progeny); OK: no effect (˜1000+ progeny)
Details: viability scored day 5, Table 1; for 5 Day Visual Score V6: 0.3 μM; for 5 Day Visual Score V4: 2.6 μM; for 5 Day Visual Score V2: 23.3 μM; for 5 Day Visual Score V1: 70 μM; for 5 Day Visual Score V3: 7.8 μM; for 5 Day Visual Score V5: 0.9 μM
Experimental: Caenorhabditis elegans adults were grown on Nematode Growth Medium (NGM) until they produced eggs, then the adults were removed.
The eggs were allowed to hatch, and the L1 larvae collected. See The Neniatode Caenorhabditis elegans (1988) Cold Spring Harbor Laboratory Press. Using a Matrix Programmable Pipette, the L1s were distributed into 96-well tissue culture plates, 20 L1 in 50 μl NGM per well. Antibiotic/Antimyotic was added to each well, and 1% by weight E. coli strain HB101. The subject anthelmintic compounds were stored at 5 mM in 100% DMSO. 0.7 μl of compounds 1-31 were added to the left-most column of wells to yield a final concentration of 70 μM in 1.4% DMSO, with 1.4% DMSO only as the control. The compounds were then subjected to 5 more 3-fold dilutions from left to right to yield 6 column concentrations of 70 μM, 23.3 μM, 7.8 μM, 2.6 μM, 0.9 μM, and 0.3 μM. Plates were stored in air-tight Rubbermaid plastic boxes at 20° C. The nematodes had cleared all control wells by day 4, and nematode viability was scored by visual examination under a 100× dissecting microscope on day 5. A visual viability scoring system was used as follows:
If several classes of worms exist in a well, then all classes are scored. If adults are present, then the brood score is also recorded. Thus, “L1/L2” would mean a mixture of L1's and L2's are present in the well. “L4/#AD/B” would mean that a mixture of L4's and adults are resent in the well. The “#AD” would mean that there are 6 or less adults, and the “B” would mean that there were 100 progeny or less.
Column VI has a compound concentration of 70 μM with sequential 3-fold dilutions reported in columns V2, V3, V4, V5, and V6, respectively, such that the V6 concentration was 0.3 μM.
The nematicidal activity of anthelmintic Compositions 48-118 were determined in accordance with the procedure outlined in Example 2.

Structure (SMILES)	5 Day Visual Score V6	5 Day Visual Score V4	5 Day Visual Score V2	5 Day Visual Score V1	5 Day Visual Score V3	5 Day Visual Score V5
O=C(Nc1ccc(OC(F)(F)F)cc1)NC1CCC(c2nc(-c3ccccc3)no2)CC1 (centres unmarked) [AKC 107]	L2/Dead(L	Dead(L4)	Dead(L2/L3)	Dead		
O=C(Nc1ccc(Br)cc1)N1CCC(c2nc(-c3ccccc3)no2)CC1 [AKC 108]		L1	Dead	Dead	L1	
O=C(NCCc1ccccc1F)C1C(c2ccccc2Cl)=NOC1c1ccc(-c2ccccc2)cc1 (centres unmarked) [AKC 110]	L1	L1	L1	L1	L1	L1
COc1ccccc1-c1noc(C(C)CNC(=O)Nc2ccc(OC(F)(F)F)cc2)n1 (centres unmarked) [AKC 111]	OK (no effect (˜1000+ progeny))	Dead(L3/L	Dead	Dead	L2	
Cc1ccc(-c2noc(C3CCC(CNC(=O)Nc4ccc(OC(F)(F)F)cc4)CC3)n2)cc1C (centres unmarked) [AKC 112]	OK (no effect (˜1000+ progeny))					#AD/˜B
O=C(NCC1CCC(c2nc(-c3ccccc3)no2)CC1)Nc1ccc(OC(F)(F)F)cc1 (centres unmarked) [AKC 113]	L4/#AD/B	Dead(L2/L	Dead	Dead	Dead	
O=C(Nc1ccc(Br)cc1)NC1CCC(c2nc(-c3ccccc3)no2)CC1 (centres unmarked) [AKC 114]	B (low broodsize (25-100 progeny))	L3/Dead(L	L3/Dead(L4)	Dead	L3	
O=C(NCCCCCc1nc(-c2ccccc2)no1)Nc1ccc(OC(F)(F)F)cc1 [AKC 115]		Dead(L2)	Dead(L2/L3)	Dead	L2/Dead(L2)	Dead(L2/L
CC(C)(C)C1=NOC(c2ccc(-c3ccccc3)cc2)C1C(=O)NCCc1ccccc1F (centres unmarked) [AKC 120]	OK (no effect (˜1000+ progeny))			L1	L1	#AD/˜B
COc1ccc(C2=NOC(c3ccc(-c4ccccc4)cc3)C2C(=O)NCCc2ccccc2F)cc1 (centres unmarked) [AKC 121]	< (reduced broodsize (250-500 progeny))	#AD/˜B	L1	L1		
CCOc1ccc(C2ON=C(c3ccc(F)cc3)C2C(=O)NCCc2ccc(F)cc2)cc1 (centres unmarked) [AKC 122]	OK (no effect (˜1000+ progeny))		L1	Dead		
